Data published in patent US9029337B2, “Modulation of factor 7 expression” (Isis Pharmaceuticals, Inc., priority 2007, dated 2015).
Strand notation (5' to 3'): a small letter for the sugar, then the base; units joined by * are phosphorothioate-linked, units joined directly phosphodiester-linked; [ ] holds rarer units or linkages, { } end groups; capitals alone tell only the bases. e = 2'-O-(2-methoxyethyl) (MOE); [5mC] = 5-methylcytosine; d = 2'-deoxy (DNA)

Experiments:
human Factor 7 mRNA = experiment: Antisense inhibition of human Factor 7 with short (14-mer) oligonucleotides in HepB3 cells, electroporation 1,000 nM; assay type: cell-based; settings: electroporation, 1,000 nM antisense oligonucleotide, approximately 24 hours, Factor 7 mRNA relative to untreated control cells
How it was run: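 14-mer 2-10-2 MOE gapmers (full phosphorothioate, 5-methyl-C) electroporated at 1,000 nM into HepB3 cells at 20,000 cells/well. After ~24 h, Factor 7 mRNA by real-time RT-PCR, normalized to RiboGreen total RNA. Reported as % inhibition relative to untreated cells.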

murine Factor 7 protein = experiment: Plasma Factor 7 protein, Factor 7 chromogenic assay, BALB/c mice; assay type: in vivo, mouse
Method: BALB/c mice were treated with ISIS 403102 ([…], target site 11336, incorporated herein as SEQ ID NO: 161). BALB/c mice were injected subcutaneously with 5 mg/kg, 10 mg/kg, 25 mg/kg, or 50 mg/kg of ISIS 403102 twice a week for 3 weeks. A control group of mice was injected subcutaneously with PBS twice a week for 3 weeks. After the treatment period, whole liver was collected for RNA and protein analysis, and plasma was collected for clotting analysis (PT/aPTT).
Plasma Factor 7 protein was measured using a Factor 7 chromogenic assay (Hyphen BioMed). […] Results are presented as percent inhibition of Factor 7, relative to control.

Substance	% Inhibition (human Factor 7 mRNA) [%]	% inhibition of murine Factor 7 protein (murine Factor 7 protein; 5 mg/kg subcutaneously twice a week for 3 weeks) [%]	% inhibition of murine Factor 7 protein (murine Factor 7 protein; 10 mg/kg subcutaneously twice a week for 3 weeks) [%]	% inhibition of murine Factor 7 protein (murine Factor 7 protein; 25 mg/kg subcutaneously twice a week for 3 weeks) [%]	% inhibition of murine Factor 7 protein (murine Factor 7 protein; 50 mg/kg subcutaneously twice a week for 3 weeks) [%]	reduction of murine Factor 7 protein over the PBS control (murine Factor 7 protein; 5-50 mg/kg twice a week for 3 weeks)
407939 (antisense eT*eG*e[5mC]*eA*eG*d[5mC]*d[5mC]*d[5mC]*dG*dG*d[5mC]*dA*d[5mC]*d[5mC]*d[5mC]*eA*eG*e[5mC]*eG*eA) [compound 407939]	81	–	–	–	–	–
CCATAGAACAGCTTCACAGG (sugars from the 5' end e5 d10 e5, backbone and methylation of C not given here) [ISIS 403102]	–	71	88	99	99	dose-dependent reduction of murine Factor 7 protein
